Experimental findings from patent US20260297070A1, “CYCLIC [COMPOUND LEFT OUT] WRN INHIBITORS” (Nimbus Wadjet, Inc., priority 2023, published 2026) are described below.

For the test, the target named is T1, human Werner helicase (WRN-BV08, Uniprot Q14191, amino acids 517-1235 with L1074F point mutation) (Homo sapiens, UniProt Q14191, L1074F).
T1 construct: Uniprot Q14191, amino acids 517-1235 with L1074F point mutation; TEV-cleavable 8×His (C, cleaved yes); made in house; host or cells: Sf9 insect cells (baculovirus)
T1 sequence (Q14191 with tags, fused parts or gaps L1074F limits assumed): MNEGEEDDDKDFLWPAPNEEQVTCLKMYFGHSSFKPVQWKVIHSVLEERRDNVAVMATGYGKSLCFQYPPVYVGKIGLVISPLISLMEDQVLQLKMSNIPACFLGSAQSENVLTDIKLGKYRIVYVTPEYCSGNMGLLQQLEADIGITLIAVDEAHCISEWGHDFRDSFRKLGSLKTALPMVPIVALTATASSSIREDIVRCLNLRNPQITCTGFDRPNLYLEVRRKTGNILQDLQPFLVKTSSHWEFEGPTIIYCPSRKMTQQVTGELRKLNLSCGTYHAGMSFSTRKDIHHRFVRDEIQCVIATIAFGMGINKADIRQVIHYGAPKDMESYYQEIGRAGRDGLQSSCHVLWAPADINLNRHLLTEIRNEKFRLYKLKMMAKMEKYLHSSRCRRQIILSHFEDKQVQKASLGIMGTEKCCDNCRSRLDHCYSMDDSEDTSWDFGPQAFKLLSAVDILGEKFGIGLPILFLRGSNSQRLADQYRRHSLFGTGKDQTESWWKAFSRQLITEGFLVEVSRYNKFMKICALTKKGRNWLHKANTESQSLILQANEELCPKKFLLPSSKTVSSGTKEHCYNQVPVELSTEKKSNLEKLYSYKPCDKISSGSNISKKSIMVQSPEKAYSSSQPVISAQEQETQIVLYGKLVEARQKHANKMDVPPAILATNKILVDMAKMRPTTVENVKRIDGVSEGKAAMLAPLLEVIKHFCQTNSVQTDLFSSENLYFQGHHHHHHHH
Kind of test: WRN (BV08) ADP-Glo Assay. It is filed as biochemical. Conditions: 0.15 nM WRN, 5 μM ATP, 0.1 nM DNA duplex, 15 min preincubation, 60 min at 25° C., pH 7.5, 1% DMSO; read-out: ADP-Glo_hWRN_IC50. The essentials: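 Untagged WRN (Sf9-expressed, TEV-cleaved) at 0.15 nM was preincubated 15 min at 25 °C with compound, then reacted 60 min at 25 °C with 5 μM ATP and 0.1 nM DNA duplex in Bicine pH 7.5, 1 mM MgCl2. ADP-Glo luminescence gave % inhibition; IC50 by four-parameter fit.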
(ADP-Glo turns the ADP formed in a reaction into a luminescent signal.)
For `O=C(CCn1ccc2ccccc21)N(Cc1ccncc1)C1C=CS(=O)(=O)C1` (stereo not drawn) [I-502, N-(1,1-dioxo-2,3-dihydro-1lambda6-thiophen-3-yl)-3-(1H-indol-1-yl)-N-[(pyridin-4-yl)methyl]propanamide], the IC50 was over 50 µM.
For `O=C(Cc1ccc(N2CCCC2)cc1)N(Cc1ccncc1)C1C=CS(=O)(=O)C1` (stereo not drawn) [I-464, N-(1,1-dioxo-2,3-dihydro-1lambda6-thiophen-3-yl)-N-[(pyridin-4-yl)methyl]-2-[4-(pyrrolidin-1-yl)phenyl]acetamide], the IC50 was over 50 µM.
Under `COc1cc(CN(C(=O)Cc2ccc(-n3cccc3C)cc2F)C2C=CS(=O)(=O)C2)ccn1` (single isomer, unassigned) [I-31] stands under 0.5 µM; under `CN(C)C(=O)C(C(=O)N(Cc1ccncc1)C1C=CS(=O)(=O)C1)c1ccc(-c2ccc(F)cc2)cc1` (single isomer, unassigned) [I-375, (2R**)-N′-[(3R*)-1,1-dioxo-2,3-dihydro-1lambda6-thiophen-3-yl]-2-{4′-fluoro-[1,1′-biphenyl]-4-yl}-N,N-dimethyl-N′-[(pyridin-4-yl)methyl]propanediamide], over 50 µM; under `O=C(Cc1ccc(C(F)(F)F)cn1)N(Cc1ccncc1)C1C=CS(=O)(=O)C1` (stereo not drawn) [I-389, N-(1,1-dioxo-2,3-dihydro-1lambda6-thiophen-3-yl)-N-[(pyridin-4-yl)methyl]-2-[5-(trifluoromethyl)pyridin-2-yl]acetamide], over 50 µM.
Under `CC(C)(O)c1cc(CN(C(=O)C(c2ccc(-c3ccc(F)c(F)c3)cc2F)n2cccn2)C2C=CS(=O)(=O)C2)ccn1` (single isomer, unassigned) [I-670, (2R*)-N-[(3R**)-1,1-dioxo-2,3-dihydro-1lambda6-thiophen-3-yl]-N-{[2-(2-hydroxypropan-2-yl)pyridin-4-yl]methyl}-2-(1H-pyrazol-1-yl)-2-{3,3′,4′-trifluoro-[1,1′-biphenyl]-4-yl}acetamide] stands 0.5 to 5 µM.
Under `O=C(CCc1cnc2n1CCCCC2)N(Cc1ccncc1)C1C=CS(=O)(=O)C1` (stereo not drawn) [I-560, N-(1,1-dioxo-2,3-dihydro-1lambda6-thiophen-3-yl)-3-{5H,6H,7H,8H,9H-imidazo[1,2-a]azepin-3-yl}-N-[(pyridin-4-yl)methyl]propanamide] stands over 50 µM.
Turning to `O=C(Cc1ccc(-n2cccc2)cc1)N(Cc1ccncc1)C1C=CS(=O)(=O)C1` (single isomer, unassigned) [I-490], the IC50 is over 50 µM.
Under `CC(C)(C)OC(=O)N1CC(C(=O)N(Cc2ccncc2)C2C=CS(=O)(=O)C2)c2ccc(-c3ccc(F)cc3)cc21` (stereo not drawn) [I-569, tert-butyl 3-[(1,1-dioxo-2,3-dihydro-1lambda6-thiophen-3-yl)[(pyridin-4-yl)methyl]carbamoyl]-6-(4-fluorophenyl)-2,3-dihydro-1H-indole-1-carboxylate] stands over 50 µM; under `Cc1cccn1-c1ccc(CC(=O)N(Cc2nc(C3CC3)cs2)C2C=CS(=O)(=O)C2)c(F)c1` (stereo not drawn) [I-60, N-[(4-cyclopropyl-1,3-thiazol-2-yl)methyl]-N-(1,1-dioxo-2,3-dihydro-1lambda6-thiophen-3-yl)-2-[2-fluoro-4-(2-methyl-1H-pyrrol-1-yl)phenyl]acetamide], under 0.5 µM; under `N#Cc1cccn1-c1ccc(CC(=O)N(Cc2ccncc2)C2C=CS(=O)(=O)C2)cc1` (stereo not drawn) [I-272, 2-[4-(2-cyano-1H-pyrrol-1-yl)phenyl]-N-(1,1-dioxo-2,3-dihydro-1lambda6-thiophen-3-yl)-N-[(pyridin-4-yl)methyl]acetamide], 5 to 10 µM.
Under `Cc1sc(CN(C(=O)Cc2ccc(-c3ccc(F)c(F)c3)cc2F)C2C=CS(=O)(=O)C2)nc1C1CC1` (stereo not drawn) [I-754, N-[(4-cyclopropyl-5-methyl-1,3-thiazol-2-yl)methyl]-N-(1,1-dioxo-2,3-dihydro-1lambda6-thiophen-3-yl)-2-{3,3′,4′-trifluoro-[1,1′-biphenyl]-4-yl}acetamide] stands 0.5 to 5 µM; under `CC(O)c1cc(CN(C(=O)Cc2ccc(-n3cccc3)cc2)C2C=CS(=O)(=O)C2)ccn1` (stereo not drawn) [I-169, N-(1,1-dioxo-2,3-dihydro-1lambda6-thiophen-3-yl)-N-{[2-(1-hydroxyethyl)pyridin-4-yl]methyl}-2-[4-(1H-pyrrol-1-yl)phenyl]acetamide], 0.5 to 5 µM.
Under `CC(C)(O)c1cc(CN(C(=O)Cn2cc(-c3ccccc3)cn2)[C@@H]2C=CS(=O)(=O)C2)ccn1` [I-43, N-[(3R)-1,1-dioxo-2,3-dihydro-1lambda6-thiophen-3-yl]-N-{[2-(2-hydroxypropan-2-yl)pyridin-4-yl]methyl}-2-(4-phenyl-1H-pyrazol-1-yl)acetamide] stands under 0.5 µM.
Regarding `COc1cc(CN(C(=O)[C@H](C(=O)N(C)C)c2ccc(-c3ccc(F)cc3)cc2F)[C@@H]2C=CS(=O)(=O)C2)ccn1` [I-9, (2S)-2-{3,4′-difluoro-[1,1′-biphenyl]-4-yl}-N-[(3R)-1,1-dioxo-2,3-dihydro-1lambda6-thiophen-3-yl]-N-[(2-methoxypyridin-4-yl)methyl]-N′,N′-dimethylpropanediamide], the IC50 was under 0.5 µM.
Under `Cc1nn(-c2ccc(F)cc2F)c(C)c1CC(=O)N(Cc1ccncc1)C1C=CS(=O)(=O)C1` (stereo not drawn) [I-816, 2-[1-(2,4-difluorophenyl)-3,5-dimethyl-1H-pyrazol-4-yl]-N-(1,1-dioxo-2,3-dihydro-1lambda6-thiophen-3-yl)-N-[(pyridin-4-yl)methyl]acetamide] stands over 50 µM; under `CC(C(=O)N(Cc1ccncc1)C1C=CS(=O)(=O)C1)c1ccc(-n2cccc2)cc1` (stereo not drawn) [I-265, N-(1,1-dioxo-2,3-dihydro-1lambda6-thiophen-3-yl)-N-[(pyridin-4-yl)methyl]-2-[4-(1H-pyrrol-1-yl)phenyl]propanamide], 5 to 10 µM.
Under `O=C(Cc1cnn(Cc2ccccc2)c1)N(Cc1ccncc1)C1C=CS(=O)(=O)C1` (stereo not drawn) [I-544, 2-(1-benzyl-1H-pyrazol-4-yl)-N-(1,1-dioxo-2,3-dihydro-1lambda6-thiophen-3-yl)-N-[(pyridin-4-yl)methyl]acetamide] stands over 50 µM; under `CC(C)(O)c1cc(CN(C(=O)Cc2ccc(C(F)(F)F)cc2)C2C=CS(=O)(=O)C2)ccn1` (stereo not drawn) [I-135, N-(1,1-dioxo-2,3-dihydro-1lambda6-thiophen-3-yl)-N-{[2-(2-hydroxypropan-2-yl)pyridin-4-yl]methyl}-2-[4-(trifluoromethyl)phenyl]acetamide], 0.5 to 5 µM.
Under `CC(C)(O)c1csc(CN(C(=O)Cc2ccc(S(F)(F)(F)(F)F)cc2)C2C=CS(=O)(=O)C2)n1` (single isomer, unassigned) [I-709] stands under 0.5 µM.
In the case of `COc1cc(CN(C(=O)C(OC)c2ccc(-c3ccc(F)cc3)cc2F)C2C=CS(=O)(=O)C2)ccn1` (stereo not drawn) [I-71, 2-{3,4′-difluoro-[1,1′-biphenyl]-4-yl}-N-(1,1-dioxo-2,3-dihydro-1lambda6-thiophen-3-yl)-2-methoxy-N-[(2-methoxypyridin-4-yl)methyl]acetamide], the IC50 is under 0.5 µM.
Under `CC(C)(O)c1cc(CN(C(=O)CCc2ccc(S(F)(F)(F)(F)F)cc2)C2C=CS(=O)(=O)C2)ccn1` (single isomer, unassigned) [I-674] stands 5 to 10 µM.
Under `O=C(Cc1ccc(S(F)(F)(F)(F)F)cc1)N(Cc1ccncc1)C1C=CS(=O)(=O)C1` (single isomer, unassigned) [I-336] stands 10 to 50 µM; under `COc1cc(CN(C(=O)C(OCCC#N)c2ccc(-c3ccc(F)c(F)c3)cc2F)[C@@H]2C=CS(=O)(=O)C2)ccn1` (single isomer, unassigned) [I-736, (2R*)-2-(2-cyanoethoxy)-N-[(3R)-1,1-dioxo-2,3-dihydro-1lambda6-thiophen-3-yl]-N-[(2-methoxypyridin-4-yl)methyl]-2-{3,3′,4′-trifluoro-[1,1′-biphenyl]-4-yl}acetamide], over 50 µM; under `O=C(Cn1cc(-c2ccc(F)c(F)c2)cn1)N(Cc1nc(C2CC2)cs1)C1C=CS(=O)(=O)C1` (single isomer, unassigned) [I-5, N-((4-cyclopropylthiazol-2-yl)methyl)-2-(4-(3,4-difluorophenyl)-1H-pyrazol-1-yl)-N-(1,1-dioxido-2,3-dihydrothiophen-3-yl)acetamide], under 0.5 µM.
As to `C#CCN(C)C(=O)c1ccc(CN(C(=O)Cc2ccc(-n3cccc3)cc2F)C2C=CS(=O)(=O)C2)cc1` (stereo not drawn) [I-153, 4-{[N-(1,1-dioxo-2,3-dihydro-1lambda6-thiophen-3-yl)-2-[2-fluoro-4-(1H-pyrrol-1-yl)phenyl]acetamido]methyl}-N-methyl-N-(prop-2-yn-1-yl)benzamide], the IC50 was in the range of 0.5 to 5 µM.
Under `O=C(Cc1ccc(-n2cccc2)cc1)N(Cc1ccccc1Br)C1C=CS(=O)(=O)C1` (stereo not drawn) [I-534, N-[(2-bromophenyl)methyl]-N-(1,1-dioxo-2,3-dihydro-1lambda6-thiophen-3-yl)-2-[4-(1H-pyrrol-1-yl)phenyl]acetamide] stands over 50 µM; under `COCc1cccn1-c1ccc(CC(=O)N(Cc2ccccc2)C2C=CS(=O)(=O)C2)cc1` (stereo not drawn) [I-568, N-benzyl-N-(1,1-dioxo-2,3-dihydro-1lambda6-thiophen-3-yl)-2-{4-[2-(methoxymethyl)-1H-pyrrol-1-yl]phenyl}acetamide], over 50 µM; under `Cc1cnccc1CN(C(=O)Cc1ccc(-n2cccc2)cc1)C1C=CS(=O)(=O)C1` (stereo not drawn) [I-313, N-(1,1-dioxo-2,3-dihydro-1lambda6-thiophen-3-yl)-N-[(3-methylpyridin-4-yl)methyl]-2-[4-(1H-pyrrol-1-yl)phenyl]acetamide], 10 to 50 µM.
`O=C(Cc1ccc(-n2cccc2)cc1)N(Cc1ccncc1)C1C=CS(=O)(=O)C1` (single isomer, unassigned) [I-193]: the IC50 was in the range of 0.5 to 5 µM.
